US20230167450A1, “BIFUNCTIONAL MOLECULES AND METHODS OF USING THEREOF” (Flagship Pioneering, Inc., priority 2020, published 2023)

Tested on: mRNA encoding Renilla Luciferase protein
Assay: Renilla luciferase activity (protein expression) in HEK293T cells co-transfected with pRL-TK target plasmid and BTK-fused effector plasmid
Type: cell-based, human
Details: ASO conjugated at the 5′ end with Ibrutinib-MPEA; effector fused to BTK
Excerpt: The Ibrutinib-conjugated ASOs described in Example 4a (shown in Table 5 below) were co-transfected into human cells along with the plasmid expressing the target Renilla luciferase described in example 4b, as well as the plasmid expressing BTK-YTHDF1 effector protein described example 4c.
A 96-well cell culture plate with 70% confluent HEK293T cells was transfected with the 50 nanograms of the target luciferase plasmid and 100 nanograms of the plasmid expressing the BTK-YTHDF1 effector, using Lipofectamine 2000 (Thermo Fisher Scientific) according to the manufacturer's instruction. After 24 hours, targeting (test) and non-targeting (control) ASOi were transfected separately into the cells at the final concentration of 100 nM using Lipofectamine RNaiMax (Thermo Fisher Scientific) according to the manufacturer's instruction. For each condition, cells were allowed to recover and are subsequently analyzed 48 hours after the transfection of ASOis.
Pierce Renilla Luciferase Glow Assay Kit (Thermo Fisher Scientific) was used for measuring the luciferase activity corresponding to protein expression in each condition, according to manufacturer's instruction. The luminescence was measured and quantified by a GloMax plate reader and its integrated software (Promega Corp.), according to manufacturer's instruction (FIG. 4). […]

Molecule	Effector(s) increasing translation
ASO3: Rluc RNA-targeting ASO, TTCTGCAGCTTAAGTTCGA, 2′-MOE phosphorothioate; tested conjugated at 5′ end with Ibrutinib-MPEA (*/i2MOErT/*/i2MOErT/*/i2MOErC/*/i2MOErT/*/i2MOErG/*/i2MOErC/*/i2MOErA/*/i2MOErG/*/i2MOErC/*/i2MOErT/*/i2MOErT/*/i2MOErA/*/i2MOErA/*/i2MOErG/*/i2MOErT/*/i2MOErT/*/i2MOErC/*/i2MOErG/*/32MOErA/; as printed in the source, key not given here)	YTHDF1, EIF4E
ASO1: Non-targeting (scramble) control ASO, …, 2′-MOE phosphorothioate; tested conjugated at 5′ end with Ibrutinib-MPEA (nucleic acid, Cy5-labeled IVT RNA) CCUUGAAAUCCAUGACGCAGGGAGAAUUGCGUCAUUUAAAGCCUAGUUAACGCAUUUACUAAACGCAGACGAAAAUGGAAAGAUUAAUUGGGAGUGGUAGGAUGAAACAAUUUGGAGAAGAUAGAAGUUUGAAGUGGAAAACUGGAAGACAGAAGUACGGGAAGGCGAA	YTHDF1, EIF4E
